Results: patent publication US11331294B2, “Benzoquinone derivative E3330 in combination with chemotherapeutic agents for the treatment of bladder cancer” (Indiana University Research and Technology Corporation, priority 2007, dated 2022)

Legend:
[1] = test system: UC3 and T24 cells; test: Incucyte caspase-3/7 apoptosis assay; assay type: cell-based, human; details: red fluorescence over time
Description: UC3 and T24 cells were plated in 96-well plates at 3,500 cell/well and allowed to attach overnight. Increasing amounts of APX2009 or APX2014 were added to each well along with 1 μM of the caspase reagent (Caspase-3/7 Red, Essen Bioscience) and then the cells were allowed to recover for 2 hours prior to beginning imaging with the Incucyte system (Essen Bioscience). Each well was imaged for phase contrast as well as red fluorescence every 2 hours for 96 hours. The Incucyte software generated movies of the cells following treatment as well as real-time imaging data with red fluorescence normalized to the percent confluency of the well.
To assay for caspase-3/7 mediated apoptosis, the increase in red fluorescence was analyzed over time following the addition of APX2009 and APX2014.

[2] = test system: UC3 cells; test: Methylene blue cell growth assay UC3; assay type: cell-based; details: Homo sapiens, read-out: cell growth-inhibitory IC50
Description: FIGS. 31A & 31B. Treatment with APE1/Ref-1 inhibitors potently blocks bladder cancer cell proliferation and activated Caspase 3/7. […] The IC50 values for FIG. 31A were determined using the methylene blue assay, n=4. […] T24 and UC3 cells were treated with APX2009 and APX2014 at the IC50 and IC90 and monitored over time for activation of capsase 3/7 by an increase in red fluorescence. Time course graphs are shown in FIG. 31B and representative images at 48 hr are shown in FIG. 32A (described more fully below), n=3-4.
FIGS. 36A-36H. […] In cytokine-induced T24 and UC3 cells NFκB-driven luciferase (FIG. 36A), STAT3-driven luciferase (FIG. 36B), and AP-1-driven luciferase (FIG. 36C) were quantified and normalized via Renilla following treatment with the corresponding cell growth-inhibitory IC50 concentrations. T24 cells were treated with APX2009 (8.5 μM) and APX2014 (6.5 μM), and UC3 cells were treated with APX2009 (6.1 μM) and APX2014 (4.6 μM) for 24 h. (*-p<0.05 APX treated vs vehicle, n=4). […] In the panels of FIGS. 36F & 36G, co-expression of survivin and APE1/Ref-1 was analyzed in superficial (FIG. 36F) and invasive human bladder tumors (FIG. 36G) in patients, and found nearly universal overlap of positivity in both in human samples. This was also true in cisplatin-refractory patients from the tissue microarray specimens (FIG. 36H). […]

[3] = test system: SF767 glioma cells; test: Glioma cell migration (scratch) assay; assay type: cell-based; details: 100 μM, 48 h
Description: Glioma Cell Migration Assay. APX3330 was tested to determine if it would inhibit the migration ability of SF767 glioma cells. In order to do this, we plated 1.5×10^6 SF767 cells in a 60 mm tissue culture dish and allowed them to attach overnight and form a confluent monolayer. A scratch or wound was made across the plate using a 200 μL pipette tip as described previously (Liang 2007). The cells were then rinsed to remove floating cells and media contain 25, 50, 75 or 100 μM APX3330 or the appropriate vehicle control, DMSO. The drug-containing media was removed after 24 h and fresh media was added Images were taken at three marked places along the scratch at 0, 24, 36 and 48 h after the drug was added. Migration was quantified in ten uniform places for each image taken using Spot Software (Diagnostic Instruments, Sterling Heights, Mich.) to measure the distance in microns between the leading edges of the scratch. Each set of data, a total of thirty for each data point, was normalized to the migration of the vehicle control at 0 h and used to determine standard deviation.

[4] = test system: CB-ECFC cells; test: Capillary tube formation assay on […]; assay type: cell-based; details: about eight hours after seeding
Description: Inhibition of capillary tube formation. The capillary tube formation assay was performed using CB-ECFC cells plated on […]® and treated with APX3330 or control media. ECFCs were cultured as previously described (Blood, 1 Nov. 2004, Vol. 104, No. 9, pp. 2752-2760). ECFC colonies appeared between 5 and 22 days of culture. Colonies were counted by visual inspection using an inverted microscope (Olympus, Lake Success, N.Y.) under ×40 magnification. Cells were passaged as previously described. Blood, 1 Nov. 2004, Vol. 104, No. 9, pp. 2752-2760.)
The tube formation assay was performed as described previously (J. Biol. Chem. 274 (1999), pp. […]). Various concentrations of APX3330 were given to CB-ECFCs for about 30 min at room temperature before seeding and plated onto the layer of […]® at a density of about 1×10^4 cells/well. After about eight hours, the enclosed networks of complete tubes from randomly chosen fields were counted and photographed under a microscope.

[5] = test system: MCF-7 tumor cells; test: MTS cell survival assay MCF-7; assay type: cell-based, human; details: about 24 or 72 h
Description: Decreased cancer cell survival. MCF-7 or OVCAR-3 cells (about 2-4,000) were aliquoted into each well of a 96-well plate in triplicate and allowed to adhere overnight. APX3330 (RN3-3) was added to the cultures. After about 24 or 72 h, about 0.05 mg/mL 3-(4-5-Dimethylthiazol-2-yl)-5-(3-carboxymethoxyphenyl)-2-(4-sulfophenyl)-2H-tetrazolium salt (MTS) reagent was added to each well and incubated at about 37° C. for about 4 h followed by absorbance measurement at 490 nm. The values were standardized to wells containing media alone. […] Similar effects can be seen in multiple myeloma, prostate, non-small cell lung carcinoma, colon, and glioma derived cells.

[6] = test system: HL-60 cells; test: HL-60 differentiation and apoptosis with retinoic acid; assay type: cell-based
Description: APX3330 in combination with Retinoic Acid. […] HL-60 cells were treated with either vehicle (EtOH; control), APX3330, retinoic acid (RA) or APX3330 and RA at the concentrations indicated and morphology determined on day six. Morphological analysis indicated an increase in the differentiation of the HL-60 cells treated with APX3330 (RN3-3).

Structure (SMILES) | caspase-3/7 activation [1] | IC50 [2] | inhibition of migration compared to vehicle control [3] | tube formation [4] | killing of MCF-7 tumor cells [5] | increase in cells undergoing apoptosis, APX3330 and RA compared with RA alone ([6]; 25 μM APX3330, day 6) | reduction of RA required for same level of differentiation (CD11) ([6]; addition of APX3330 to RA) | cell differentiation in combination with retinoic acid ([6]; day six, morphology) | HL-60 cells undergoing apoptosis (annexin/PI) at lower doses of RA ([6]; lower doses of RA)
CCC/C(=C\C1=C(OC)C(=O)c2ccccc2C1=O)C(=O)N(CC)CC [APX2009, [(2E)-2-[(3-methoxy-1,4-dioxo-1,4-dihydronaphthalen-2-yl)methylidene]-N,N-diethylpentanamide]] | dose-dependent increase in caspase activation | 6.1 µM | – | – | – | – | – | – | –
CCCCCCCCC/C(=C\C1=C(C)C(=O)C(OC)=C(OC)C1=O)C(=O)O [APX3330] | – | – | 4.0 fold | inhibit tube formation | dose dependently killed | ~1.5 | about 1000 fold | enhanced the effects of retinoic acid on promoting cell differentiation | did not significantly enhance the level of HL-60 cells undergoing apoptosis
